In one data set the target is T1, α5β2γ2 GABAA receptor (Homo sapiens, UniProt P18507+P31644).
T1 sequence (P31644 32-462): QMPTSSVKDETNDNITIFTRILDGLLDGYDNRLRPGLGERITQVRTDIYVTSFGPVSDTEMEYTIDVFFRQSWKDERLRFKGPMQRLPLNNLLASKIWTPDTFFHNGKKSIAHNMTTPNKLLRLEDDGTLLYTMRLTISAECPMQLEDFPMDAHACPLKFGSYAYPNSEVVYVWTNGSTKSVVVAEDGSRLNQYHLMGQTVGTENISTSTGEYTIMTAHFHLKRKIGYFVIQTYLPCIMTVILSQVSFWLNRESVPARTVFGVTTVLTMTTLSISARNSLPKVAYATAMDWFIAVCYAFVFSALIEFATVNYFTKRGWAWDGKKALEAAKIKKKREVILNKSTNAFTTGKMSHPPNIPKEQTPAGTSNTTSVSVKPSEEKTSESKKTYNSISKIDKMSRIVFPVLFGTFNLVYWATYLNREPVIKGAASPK
T1 sequence (P18507 40-376 limits assumed): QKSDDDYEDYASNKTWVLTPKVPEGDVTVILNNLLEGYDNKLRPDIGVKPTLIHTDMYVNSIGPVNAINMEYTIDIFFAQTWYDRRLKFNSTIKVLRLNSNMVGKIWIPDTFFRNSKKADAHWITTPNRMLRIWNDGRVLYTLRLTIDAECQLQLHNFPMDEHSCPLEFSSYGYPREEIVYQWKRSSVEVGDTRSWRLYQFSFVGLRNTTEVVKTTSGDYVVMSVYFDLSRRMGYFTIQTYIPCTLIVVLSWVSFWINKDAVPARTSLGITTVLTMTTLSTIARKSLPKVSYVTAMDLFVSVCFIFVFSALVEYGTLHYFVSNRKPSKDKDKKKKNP
The data set can be described thus: Assay B: modulation of α5β2γ2 GABAA receptor, two-electrode voltage clamp in oocytes. The following applies: for EC50: oocytes, TEVC, co-application with GABA 0.5 μM (EC5-20), read-out: Assay B: GABAA α5β3γ2 EC50. It is filed as cell-based. The procedure, abridged: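 Human α5:β2:γ2 cRNA injected into oocytes at 3:1:3; TEVC currents recorded with compound co-applied with 0.5 μM GABA (EC5-20), five concentrations 0.000316–3.16 μM ascending per oocyte. Background-subtracted peak currents normalized to GABA control as % change; Hill fit gives maximal efficacy and log EC50 with 95% CI.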
On the technique in general: Two-electrode voltage clamp holds a large cell at a set potential and records current.

The nature of data set [1]: Metabolic stability in human liver microsomes (Human MST). The data set is classed as in vitro ADME. The following applies: pooled human liver microsomes, pH 7.6; human liver microsomes 1 mg/mL, 1 μM compound, NADPH 1 mM, 37° C.; read-out: Human MST t1/2. The procedure, abridged:
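Pooled human liver microsomes (1 mg/mL protein) with compound at 1 µM, 0.1 M TRIS pH 7.6 and 5 mM MgCl2, at 37 °C. Reaction started with 1 mM NADPH and quenched in solvent at several time points. Parent compound measured by LC-MS/MS; t½ from slope of log concentration–time plot.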
Background: Microsomes from liver hold many membrane-bound enzymes, among them those of drug oxidation.

The structures appear in SMILES notation. Some results are limits rather than exact numbers.

Turning to `Cc1nnn(-c2ccc(C(F)F)cc2)c1COc1ccc(-n2cnc(C(=O)O)c2)nn1` [Example 37, 1-[6-({1-[4-(difluoromethyl)phenyl]-4-methyl-1H-1,2,3-triazol-5-yl}methoxy)pyridazin-3-yl]-1H-imidazole-4-carboxylic acid], at α5β2γ2 GABAA receptor, the Assay B: GABAA α5β3γ2 Emax vs GABA is -28.2% and the EC50 (commonly the concentration giving half of the maximal effect) was found to be 4.7 nM. The half-life at 1 μM in data set [1] is greater than 2.17 h.
The corresponding values for `Cc1nnn(-c2ccc(C(F)F)cc2)c1COc1ccc(-n2cnc(CO)c2)nn1` [Example 38, {1-[6-({1-[4-(difluoromethyl)phenyl]-4-methyl-1H-1,2,3-triazol-5-yl}methoxy)pyridazin-3-yl]-1H-imidazol-4-yl}methanol] are -23%, 1.7 nM and greater than 2.17 h.
The corresponding values for `Cc1nnn(-c2ccc(C(F)F)cc2)c1COc1ccc(-n2cnc(C(C)(C)O)c2)nn1` [Example 39, 2-{1-[6-({1-[4-(difluoromethyl)phenyl]-4-methyl-1H-1,2,3-triazol-5-yl}methoxy)pyridazin-3-yl]-1H-imidazol-4-yl}propan-2-ol] are -17.3%, 1.8 nM and greater than 2.17 h.
As for `Cc1nnn(-c2ccc(C(F)F)cc2)c1COc1ccc(-n2cnc(C(C)O)c2)nn1` (stereo not drawn) [Example 40], on α5β2γ2 GABAA receptor, the Assay B: GABAA α5β3γ2 Emax vs GABA was -17% and the EC50 stood at 1.9 nM. Besides, the half-life at 1 μM in data set [1] is greater than 2.17 h.

Source of the values: patent US10941137B2, “Difluoromethyl-phenyl triazoles” (Boehringer Ingelheim International GmbH, priority 2018, dated 2021).
